Experimental data taken from the supplement of paper PMC10307832.

Experiments:
Test in all cases: relative viability (nuclei count vs DMSO), 5 days (fraction); higher = more cells survive
HCC-78 = tested on: HCC-78
How it was run: (§1)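 Lung cancer cell lines in 1536-well plates got either a single drug or a fixed anchor-drug dose together with five library-drug doses (not always all listed) in √10 steps, by pin tool, on the day after seeding. Nuclei were counted after 5 days, and relative viability is the treated-to-vehicle ratio of nuclei counts. Values are medians of duplicate plates.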

NCI-H23 = tested on: NCI-H23
How it was run: as §1

EMC-BAC-2 = tested on: EMC-BAC-2
How it was run: as §1

NCI-H1944 = tested on: NCI-H1944
How it was run: as §1

HCC-15 = tested on: HCC-15
How it was run: as §1

COR-L23 = tested on: COR-L23
How it was run: as §1

LC-2-ad = tested on: LC-2-ad
How it was run: as §1

A-427 = tested on: A-427
How it was run: as §1

NCI-H1993 = tested on: NCI-H1993
How it was run: as §1

NCI-H1793 = tested on: NCI-H1793
How it was run: as §1

NCI-H2009 = tested on: NCI-H2009
How it was run: as §1

HARA = tested on: HARA
How it was run: as §1

NCI-H2228 = tested on: NCI-H2228
How it was run: as §1

NCI-H2023 = tested on: NCI-H2023
How it was run: as §1

NCI-H1650 = tested on: NCI-H1650
How it was run: as §1

ChaGo-K-1 = tested on: ChaGo-K-1
How it was run: as §1

NCI-H838 = tested on: NCI-H838
How it was run: as §1

SK-LU-1 = tested on: SK-LU-1
How it was run: as §1

NCI-H2405 = tested on: NCI-H2405
How it was run: as §1

UMC-11 = tested on: UMC-11
How it was run: as §1

LK-2 = tested on: LK-2
How it was run: as §1

ABC-1 = tested on: ABC-1
How it was run: as §1

NCI-H1734 = tested on: NCI-H1734
How it was run: as §1

HCC-366 = tested on: HCC-366
How it was run: as §1

SMILES: Clc1ccc(Nc2nnc(Cc3ccncc3)c3ccccc23)cc1 [Vatalanib] + CS(=O)(=O)N1CCN(Cc2cc3nc(-c4cccc5[nH]ncc45)nc(N4CCOCC4)c3s2)CC1 [Pictilisib] (partner 1 µM)
- relative viability (HCC-78; first compound 0.04 µM): 0.199
- relative viability (HCC-78; first compound 0.1265 µM): 0.172
- relative viability (HCC-78; first compound 0.4 µM): 0.183
- relative viability (HCC-78; first compound 4 µM): 0.196
- relative viability (NCI-H23; first compound 0.04 µM): 0.45
- relative viability (NCI-H23; first compound 0.1265 µM): 0.412
- relative viability (NCI-H23; first compound 0.4 µM): 0.511
- relative viability (NCI-H23; first compound 1.265 µM): 0.436
- relative viability (NCI-H23; first compound 4 µM): 0.552
- relative viability (EMC-BAC-2; first compound 0.04 µM): 0.559
- relative viability (EMC-BAC-2; first compound 0.1265 µM): 0.556
- relative viability (EMC-BAC-2; first compound 0.4 µM): 0.572
- relative viability (EMC-BAC-2; first compound 1.265 µM): 0.533
- relative viability (EMC-BAC-2; first compound 4 µM): 0.525
- relative viability (NCI-H1944; first compound 0.04 µM): 0.351
- relative viability (NCI-H1944; first compound 0.1265 µM): 0.316
- relative viability (NCI-H1944; first compound 0.4 µM): 0.37
- relative viability (NCI-H1944; first compound 1.265 µM): 0.356
- relative viability (NCI-H1944; first compound 4 µM): 0.352
- relative viability (HCC-15; first compound 0.04 µM): 0.788
- relative viability (HCC-15; first compound 0.1265 µM): 0.741
- relative viability (HCC-15; first compound 0.4 µM): 0.799
- relative viability (HCC-15; first compound 1.265 µM): 0.716
- relative viability (HCC-15; first compound 4 µM): 0.786
- relative viability (COR-L23; first compound 0.04 µM): 0.992
- relative viability (COR-L23; first compound 0.1265 µM): 0.745
- relative viability (COR-L23; first compound 0.4 µM): 0.854
- relative viability (COR-L23; first compound 1.265 µM): 0.758
- relative viability (COR-L23; first compound 4 µM): 0.64
- relative viability (LC-2-ad; first compound 0.04 µM): 0.574
- relative viability (LC-2-ad; first compound 0.1265 µM): 0.551
- relative viability (LC-2-ad; first compound 0.4 µM): 0.559
- relative viability (LC-2-ad; first compound 1.265 µM): 0.509
- relative viability (LC-2-ad; first compound 4 µM): 0.645
- relative viability (A-427; first compound 0.04 µM): 0.667
- relative viability (A-427; first compound 0.1265 µM): 0.671
- relative viability (A-427; first compound 0.4 µM): 0.736
- relative viability (A-427; first compound 1.265 µM): 0.624
- relative viability (A-427; first compound 4 µM): 0.677
- relative viability (NCI-H1993; first compound 0.04 µM): 0.782
- relative viability (NCI-H1993; first compound 0.1265 µM): 0.898
- relative viability (NCI-H1993; first compound 0.4 µM): 0.847
- relative viability (NCI-H1993; first compound 1.265 µM): 0.816
- relative viability (NCI-H1993; first compound 4 µM): 0.887
- relative viability (NCI-H1793; first compound 0.04 µM): 0.218
- relative viability (NCI-H1793; first compound 0.1265 µM): 0.326
- relative viability (NCI-H1793; first compound 0.4 µM): 0.382
- relative viability (NCI-H1793; first compound 1.265 µM): 0.293
- relative viability (NCI-H1793; first compound 4 µM): 0.347
- relative viability (NCI-H2009; first compound 0.04 µM): 0.977
- relative viability (NCI-H2009; first compound 0.1265 µM): 0.656
- relative viability (NCI-H2009; first compound 0.4 µM): 0.833
- relative viability (NCI-H2009; first compound 1.265 µM): 0.798
- relative viability (NCI-H2009; first compound 4 µM): 0.885
- relative viability (HARA; first compound 0.04 µM): 0.555
- relative viability (HARA; first compound 0.1265 µM): 0.414
- relative viability (HARA; first compound 0.4 µM): 0.351
- relative viability (HARA; first compound 1.265 µM): 0.454
- relative viability (HARA; first compound 4 µM): 0.369
- relative viability (NCI-H2228; first compound 0.04 µM): 0.313
- relative viability (NCI-H2228; first compound 0.1265 µM): 0.432
- relative viability (NCI-H2228; first compound 0.4 µM): 0.317
- relative viability (NCI-H2228; first compound 1.265 µM): 0.379
- relative viability (NCI-H2228; first compound 4 µM): 0.432
- relative viability (NCI-H2023; first compound 0.04 µM): 0.252
- relative viability (NCI-H2023; first compound 0.1265 µM): 0.255
- relative viability (NCI-H2023; first compound 0.4 µM): 0.318
- relative viability (NCI-H2023; first compound 1.265 µM): 0.218
- relative viability (NCI-H2023; first compound 4 µM): 0.226
- relative viability (NCI-H1650; first compound 0.04 µM): 0.612
- relative viability (NCI-H1650; first compound 0.1265 µM): 0.556
- relative viability (NCI-H1650; first compound 0.4 µM): 0.578
- relative viability (NCI-H1650; first compound 1.265 µM): 0.55
- relative viability (NCI-H1650; first compound 4 µM): 0.592
- relative viability (ChaGo-K-1; first compound 0.04 µM): 0.418
- relative viability (ChaGo-K-1; first compound 0.1265 µM): 0.719
- relative viability (ChaGo-K-1; first compound 1.265 µM): 0.687
- relative viability (ChaGo-K-1; first compound 4 µM): 0.787
- relative viability (NCI-H838; first compound 0.04 µM): 0.477
- relative viability (NCI-H838; first compound 0.1265 µM): 0.41
- relative viability (NCI-H838; first compound 0.4 µM): 0.518
- relative viability (NCI-H838; first compound 1.265 µM): 0.453
- relative viability (NCI-H838; first compound 4 µM): 0.467
- relative viability (SK-LU-1; first compound 0.04 µM): 0.596
- relative viability (SK-LU-1; first compound 0.1265 µM): 0.581
- relative viability (SK-LU-1; first compound 0.4 µM): 0.523
- relative viability (SK-LU-1; first compound 1.265 µM): 0.535
- relative viability (SK-LU-1; first compound 4 µM): 0.527
- relative viability (NCI-H2405; first compound 0.04 µM): 0.506
- relative viability (NCI-H2405; first compound 0.1265 µM): 0.429
- relative viability (NCI-H2405; first compound 1.265 µM): 0.352
- relative viability (NCI-H2405; first compound 4 µM): 0.493
- relative viability (UMC-11; first compound 0.04 µM): 0.814
- relative viability (UMC-11; first compound 0.1265 µM): 0.746
- relative viability (UMC-11; first compound 0.4 µM): 0.875
- relative viability (UMC-11; first compound 1.265 µM): 0.79
- relative viability (UMC-11; first compound 4 µM): 0.794
- relative viability (LK-2; first compound 0.04 µM): 0.531
- relative viability (LK-2; first compound 0.1265 µM): 0.561
- relative viability (LK-2; first compound 1.265 µM): 0.651
- relative viability (LK-2; first compound 4 µM): 0.569
- relative viability (ABC-1; first compound 0.04 µM): 0.888
- relative viability (ABC-1; first compound 0.1265 µM): 0.78
- relative viability (ABC-1; first compound 0.4 µM): 0.877
- relative viability (ABC-1; first compound 1.265 µM): 0.71
- relative viability (ABC-1; first compound 4 µM): 0.784
- relative viability (NCI-H1734; first compound 0.04 µM): 0.478
- relative viability (NCI-H1734; first compound 0.1265 µM): 0.471
- relative viability (NCI-H1734; first compound 0.4 µM): 0.503
- relative viability (NCI-H1734; first compound 1.265 µM): 0.45
- relative viability (NCI-H1734; first compound 4 µM): 0.465
- relative viability (HCC-366; first compound 0.04 µM): 0.137
- relative viability (HCC-366; first compound 0.1265 µM): 0.196
- relative viability (HCC-366; first compound 0.4 µM): 0.131
- relative viability (HCC-366; first compound 1.265 µM): 0.0986
- relative viability (HCC-366; first compound 4 µM): 0.11
